Biological target: bovine cardiac myosin (Bos taurus, UniProt Q9BE39)
Assay: Myosin activation assay (PK/LDH-coupled ATPase, bovine cardiac myofibrils)
Type: biochemical
Conditions: AC20 = concentration at which total response is increased by twenty percent
Summary of the method: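 Skinned bovine cardiac myofibrils (1 mg/mL) in PIPES/MgCl2 buffer pH 6.8 at free Ca2+ giving ~50% (pCa ~6) or <5% (pCa 10) activation, with 50 μM ATP and 3.3% DMSO. ATPase rate from NADH absorbance at 340 nm (PK/LDH coupling) over 15 min at ambient temperature. AC20/AC50 from a four-parameter fit of DMSO-normalised rates.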

Sequence of bovine cardiac myosin (Q9BE39 whole entry): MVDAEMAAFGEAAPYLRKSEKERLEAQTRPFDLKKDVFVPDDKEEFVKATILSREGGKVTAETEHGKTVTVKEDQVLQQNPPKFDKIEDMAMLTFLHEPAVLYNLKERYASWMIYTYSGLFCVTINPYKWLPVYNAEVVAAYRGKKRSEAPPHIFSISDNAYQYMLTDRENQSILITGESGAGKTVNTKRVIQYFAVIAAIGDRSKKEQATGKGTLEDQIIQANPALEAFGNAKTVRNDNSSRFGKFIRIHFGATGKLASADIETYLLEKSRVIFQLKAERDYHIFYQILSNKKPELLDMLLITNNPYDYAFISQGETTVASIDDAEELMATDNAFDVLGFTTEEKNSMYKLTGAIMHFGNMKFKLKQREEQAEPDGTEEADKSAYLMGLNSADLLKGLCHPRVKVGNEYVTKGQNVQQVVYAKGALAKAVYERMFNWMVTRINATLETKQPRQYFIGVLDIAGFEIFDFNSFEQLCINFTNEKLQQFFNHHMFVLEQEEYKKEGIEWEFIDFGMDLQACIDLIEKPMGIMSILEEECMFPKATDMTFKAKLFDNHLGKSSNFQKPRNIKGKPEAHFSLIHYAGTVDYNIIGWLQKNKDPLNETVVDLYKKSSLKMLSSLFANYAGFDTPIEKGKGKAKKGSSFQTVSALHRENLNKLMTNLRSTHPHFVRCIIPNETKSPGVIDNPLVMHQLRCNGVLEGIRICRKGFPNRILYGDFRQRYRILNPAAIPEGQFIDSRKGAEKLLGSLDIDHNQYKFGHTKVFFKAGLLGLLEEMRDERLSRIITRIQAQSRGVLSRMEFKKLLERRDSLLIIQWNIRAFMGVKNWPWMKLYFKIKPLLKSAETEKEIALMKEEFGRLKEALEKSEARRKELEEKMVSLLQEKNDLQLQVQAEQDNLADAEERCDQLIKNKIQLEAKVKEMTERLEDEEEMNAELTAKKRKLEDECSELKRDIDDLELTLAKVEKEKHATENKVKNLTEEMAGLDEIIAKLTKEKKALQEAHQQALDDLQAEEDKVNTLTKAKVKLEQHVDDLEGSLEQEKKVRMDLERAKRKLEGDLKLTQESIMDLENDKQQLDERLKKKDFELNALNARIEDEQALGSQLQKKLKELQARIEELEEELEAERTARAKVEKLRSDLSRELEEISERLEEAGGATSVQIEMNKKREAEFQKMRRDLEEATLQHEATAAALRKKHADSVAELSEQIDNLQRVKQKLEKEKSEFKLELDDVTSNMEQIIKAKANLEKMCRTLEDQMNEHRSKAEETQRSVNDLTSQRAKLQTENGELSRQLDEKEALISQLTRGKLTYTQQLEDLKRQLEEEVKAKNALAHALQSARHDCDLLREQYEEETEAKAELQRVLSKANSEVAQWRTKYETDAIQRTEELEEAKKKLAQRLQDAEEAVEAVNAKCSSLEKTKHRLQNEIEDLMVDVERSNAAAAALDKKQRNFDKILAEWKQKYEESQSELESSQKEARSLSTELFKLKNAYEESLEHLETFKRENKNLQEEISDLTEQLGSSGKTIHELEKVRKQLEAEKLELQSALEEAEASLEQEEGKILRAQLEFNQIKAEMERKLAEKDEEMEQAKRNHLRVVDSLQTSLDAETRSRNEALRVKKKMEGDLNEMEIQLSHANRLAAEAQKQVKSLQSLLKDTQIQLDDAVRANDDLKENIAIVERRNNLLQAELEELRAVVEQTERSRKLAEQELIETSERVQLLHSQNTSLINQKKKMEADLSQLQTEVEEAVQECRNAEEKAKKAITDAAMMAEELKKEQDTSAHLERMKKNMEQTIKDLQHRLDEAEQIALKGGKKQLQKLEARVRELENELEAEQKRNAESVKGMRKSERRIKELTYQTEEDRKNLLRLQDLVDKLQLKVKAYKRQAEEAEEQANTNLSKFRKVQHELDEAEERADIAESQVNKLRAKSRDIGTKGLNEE
Sequence of bovine cardiac myosin (P85100 whole entry partner): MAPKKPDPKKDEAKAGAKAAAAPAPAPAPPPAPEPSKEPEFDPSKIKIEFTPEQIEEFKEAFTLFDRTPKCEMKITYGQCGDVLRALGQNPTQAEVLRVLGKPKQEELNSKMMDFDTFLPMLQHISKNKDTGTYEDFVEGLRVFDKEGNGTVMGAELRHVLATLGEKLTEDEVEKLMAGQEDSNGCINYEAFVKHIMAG
Sequence of bovine cardiac myosin (Q3SZE5 whole entry partner): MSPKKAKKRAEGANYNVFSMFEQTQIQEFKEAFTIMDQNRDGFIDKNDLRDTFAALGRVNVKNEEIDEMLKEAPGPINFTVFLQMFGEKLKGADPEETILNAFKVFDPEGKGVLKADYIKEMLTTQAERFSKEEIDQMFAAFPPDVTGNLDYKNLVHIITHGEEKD

SMILES: CC(F)(C1CCN(C(=O)Nc2ccon2)CC1)S(=O)(=O)c1ccc(C#N)cc1 (centres unmarked) [Compound 283, 4-(1-((4-cyanophenyl)sulfonyl)-1-fluoroethyl)-N-(isoxazol-3-yl)piperidine-1-carboxamide]
- Myosin Activation (AC20): ++ (++ represents myosin activation value AC20 from 2 μM-5 μM)

SMILES: C[C@](F)(C1CCN(C(=O)Nc2ccon2)CC1)S(=O)(=O)c1cccc(F)c1 [Compound 284, (R)-4-(1-fluoro-1-((3-fluorophenyl)sulfonyl)ethyl)-N-(isoxazol-3-yl)piperidine-1-carboxamide]
- Myosin Activation (AC20): +++ (+++ represents myosin activation value AC20 < 2 μM)

SMILES: C[C@@](F)(C1CCN(C(=O)Nc2ccon2)CC1)S(=O)(=O)c1cccc(F)c1 [Compound 285, (S)-4-(1-fluoro-1-((3-fluorophenyl)sulfonyl)ethyl)-N-(isoxazol-3-yl)piperidine-1-carboxamide]
- Myosin Activation (AC20): + (+ represents myosin activation value AC20 > 5 μM)

SMILES: C[C@](F)(C1CCN(C(=O)Nc2ccc(CO)nc2)CC1)S(=O)(=O)c1cccc(F)c1 [Compound 286, (R)-4-(1-fluoro-1-((3-fluorophenyl)sulfonyl)ethyl)-N-(6-(hydroxymethyl)pyridin-3-yl)piperidine-1-carboxamide]
- Myosin Activation (AC20): + (+ represents myosin activation value AC20 > 5 μM)

SMILES: Cn1cc(S(=O)(=O)[C@@](C)(F)C2CCN(C(=O)Nc3cccnc3)CC2)c(C(F)F)n1 [Compound 288, (R)-4-(1-((3-(difluoromethyl)-1-methyl-1H-pyrazol-4-yl)sulfonyl)-1-fluoroethyl)-N-(pyridin-3-yl)piperidine-1-carboxamide]
- Myosin Activation (AC20): ++ (++ represents myosin activation value AC20 from 2 μM-5 μM)

SMILES: Cn1cc(S(=O)(=O)[C@@](C)(F)C2CCN(C(=O)Nc3cn[nH]c3)CC2)c(C(F)F)n1 [Compound 289, (R)-4-(1-((3-(difluoromethyl)-1-methyl-1H-pyrazol-4-yl)sulfonyl)-1-fluoroethyl)-N-(1H-pyrazol-4-yl)piperidine-1-carboxamide]
- Myosin Activation (AC20): ++ (++ represents myosin activation value AC20 from 2 μM-5 μM)

SMILES: Cn1cc(S(=O)(=O)[C@@](C)(F)C2CCN(C(=O)Nc3cc[nH]n3)CC2)c(C(F)F)n1 [Compound 290, (R)-4-(1-((3-(difluoromethyl)-1-methyl-1H-pyrazol-4-yl)sulfonyl)-1-fluoroethyl)-N-(1H-pyrazol-3-yl)piperidine-1-carboxamide]
- Myosin Activation (AC20): ++ (++ represents myosin activation value AC20 from 2 μM-5 μM)

SMILES: C[C@@](F)(C1CCN(C(=O)Nc2ccc(C#N)nc2)CC1)S(=O)(=O)c1cccc(F)c1 [Compound 291, (S)-N-(6-cyanopyridin-3-yl)-4-(1-fluoro-1-((3-fluorophenyl)sulfonyl)ethyl)piperidine-1-carboxamide]
- Myosin Activation (AC20): + (+ represents myosin activation value AC20 > 5 μM)

SMILES: C[C@](F)(C1CCN(C(=O)Nc2ccc(C#N)nc2)CC1)S(=O)(=O)c1cccc(F)c1 [Compound 292, (R)-N-(6-cyanopyridin-3-yl)-4-(1-fluoro-1-((3-fluorophenyl)sulfonyl)ethyl)piperidine-1-carboxamide]
- Myosin Activation (AC20): ++ (++ represents myosin activation value AC20 from 2 μM-5 μM)

SMILES: C[C@](F)(C1CCN(C(=O)Nc2ccnc(C#N)c2)CC1)S(=O)(=O)c1cccc(F)c1 [Compound 293, (R)-N-(2-cyanopyridin-4-yl)-4-(1-fluoro-1-((3-fluorophenyl)sulfonyl)ethyl)piperidine-1-carboxamide]
- Myosin Activation (AC20): + (+ represents myosin activation value AC20 > 5 μM)

SMILES: Cc1ccc(NC(=O)N2CCC(C(C)(F)S(=O)(=O)c3cccc(F)c3)CC2)cn1 (centres unmarked) [Compound 295, 4-(1-fluoro-1-((3-fluorophenyl)sulfonyl)ethyl)-N-(6-methylpyridin-3-yl)piperidine-1-carboxamide]
- Myosin Activation (AC20): + (+ represents myosin activation value AC20 > 5 μM)
